Laboratory results reported in ChEMBL document CHEMBL1201862, “PubChem BioAssay data set” (2004).
Activity calls are given as the source filed them. Cut-off read from the data, not from the text of the source, for most assays here: actives have a measured EC50 and inactives only a lower limit.

Key:
[1] = target: T1, RNA-binding protein pos-1 (Caenorhabditis elegans, UniProt G5EF15); assay: inhibitors of POS-1/mex-3 RNA binding, dose response, biochemical, fluorescence polarization (AID 1964);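 note: purified POS-1 fused to maltose binding protein made in E. coli; potency of compounds blocking POS-1 binding to fluorescent RNA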
T1 sequence (G5EF15 whole entry): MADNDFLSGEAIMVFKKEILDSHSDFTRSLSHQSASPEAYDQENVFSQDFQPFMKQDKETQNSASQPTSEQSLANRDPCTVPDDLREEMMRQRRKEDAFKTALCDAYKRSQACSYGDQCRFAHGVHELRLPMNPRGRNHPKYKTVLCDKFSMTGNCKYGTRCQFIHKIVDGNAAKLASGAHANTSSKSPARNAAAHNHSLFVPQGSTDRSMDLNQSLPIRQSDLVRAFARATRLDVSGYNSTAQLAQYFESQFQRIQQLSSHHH

[2] = target: T2, Zinc finger protein mex-5 (Caenorhabditis elegans, UniProt Q9XUB2); assay: MEX-5/TCR-2 RNA interaction inhibitors, dose response, biochemical, C. elegans, fluorescence polarization (AID 1960)
T2 sequence (Q9XUB2 whole entry): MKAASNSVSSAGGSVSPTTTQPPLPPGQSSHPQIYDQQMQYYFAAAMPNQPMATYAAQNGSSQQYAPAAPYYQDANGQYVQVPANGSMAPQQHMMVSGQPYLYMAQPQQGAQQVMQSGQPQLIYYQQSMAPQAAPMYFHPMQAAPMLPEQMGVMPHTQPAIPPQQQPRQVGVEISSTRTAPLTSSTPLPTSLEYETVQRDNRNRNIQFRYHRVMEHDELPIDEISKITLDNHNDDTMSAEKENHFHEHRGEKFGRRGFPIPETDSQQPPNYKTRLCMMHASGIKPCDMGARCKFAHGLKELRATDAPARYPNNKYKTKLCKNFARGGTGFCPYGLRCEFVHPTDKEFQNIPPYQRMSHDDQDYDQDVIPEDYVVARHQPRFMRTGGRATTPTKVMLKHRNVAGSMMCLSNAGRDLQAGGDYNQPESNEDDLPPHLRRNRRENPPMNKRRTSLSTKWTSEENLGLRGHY

[3] = target: T3, Endoribonuclease toxin MazF (Escherichia coli K-12, UniProt P0AE70); assay: MazF toxin RNase activators, dose response, biochemical, fluorescence, single-stranded RNA substrate, uHTS hits (AID 588481); assay type: functional
T3 sequence (P0AE70 whole entry): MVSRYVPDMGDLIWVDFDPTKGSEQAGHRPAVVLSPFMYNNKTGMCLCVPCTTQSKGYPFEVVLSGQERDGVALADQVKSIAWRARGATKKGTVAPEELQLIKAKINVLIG

[4] = target: T3, Endoribonuclease toxin MazF; assay: fluorescent RNA oligo signal without MazF, dose response, counter-screen for MazEF activator project, biochemical, fluorescence, single-stranded RNase substrate (AID 588502); assay type: functional
[5] = NIH-3T3 fibroblast cytotoxicity, dose response, cytotoxicity control, cell-based, fluorescence, Alamar Blue, secondary assay (AID 2327); assay type: functional;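 note: NIH-3T3 mouse fibroblasts cultured with fluconazole at 8 µg/mL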
[6] = C. albicans growth with fluconazole, confirmation, fluorescence, retest (AID 2467); assay type: functional, cell-based
[7] = target: T4, Serine/threonine-protein phosphatase (Candida dubliniensis (strain CD36 / CBS 7987 / NCPF 3949 / NRRLY-17841) (Yeast), UniProt B9W6M3); assay: calcineurin pathway inhibitors in yeast reporter, dose response, S. cerevisiae, CDRE-lacZ, luminescence, secondary (AID 2388); assay type: functional, cell-based;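 note: yeast reporter cells carrying a calcineurin-responsive lacZ construct stimulated with calcium chloride; luminescent beta-galactosidase reporter signal in whole cells rather than isolated phosphatase activity; potency for inhibition where a drop in reporter signal means calcineurin blockade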
T4 sequence (B9W6M3 whole entry): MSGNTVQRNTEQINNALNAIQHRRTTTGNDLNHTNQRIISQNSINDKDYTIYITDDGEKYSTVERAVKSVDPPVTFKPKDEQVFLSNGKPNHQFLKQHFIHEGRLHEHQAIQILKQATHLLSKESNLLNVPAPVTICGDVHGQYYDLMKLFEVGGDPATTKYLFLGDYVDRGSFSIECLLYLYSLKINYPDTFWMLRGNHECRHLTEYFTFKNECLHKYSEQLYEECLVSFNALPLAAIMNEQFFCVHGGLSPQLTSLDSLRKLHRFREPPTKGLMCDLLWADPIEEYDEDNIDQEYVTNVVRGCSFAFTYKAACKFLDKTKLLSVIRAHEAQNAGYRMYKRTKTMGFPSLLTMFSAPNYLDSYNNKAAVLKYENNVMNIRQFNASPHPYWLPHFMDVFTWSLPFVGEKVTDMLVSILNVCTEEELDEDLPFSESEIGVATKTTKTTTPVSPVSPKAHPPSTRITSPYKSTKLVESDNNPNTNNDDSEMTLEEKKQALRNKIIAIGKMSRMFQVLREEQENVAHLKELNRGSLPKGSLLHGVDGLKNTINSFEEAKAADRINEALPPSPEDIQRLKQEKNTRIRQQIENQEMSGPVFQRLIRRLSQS

[8] = Luminescence Cell-Based Dose Retest to Confirm Inhibitors of Cancer Stem Cells. [Related pubchem assays (depositor defined):AID2717, AID2721]; assay type: functional, Homo sapiens; conditions: Homo sapiens
[9] = target: ATP-dependent molecular chaperone HSP82 (Candida albicans (strain WO-1) (Yeast), UniProt C4YTQ8); assay: loss of DOC-induced GRE-beta-galactosidase reporter signal, dose response, Hsp90 inhibitor project, S. cerevisiae, luminescence (AID 2400); assay type: functional, cell-based;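 note: beta-galactosidase luminescence from glucocorticoid response element reporter as proxy for Hsp90 function; inhibitor potency where signal loss means Hsp90 inhibition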
[10] = target: T5, Replicative DNA helicase DnaB (Mycobacterium tuberculosis, UniProt P9WMR3); assay: DnaB intein splicing inhibitors, dose response, biochemical, cell-free fluorescence (AID 449749); assay type: functional
T5 sequence (P9WMR3 whole entry): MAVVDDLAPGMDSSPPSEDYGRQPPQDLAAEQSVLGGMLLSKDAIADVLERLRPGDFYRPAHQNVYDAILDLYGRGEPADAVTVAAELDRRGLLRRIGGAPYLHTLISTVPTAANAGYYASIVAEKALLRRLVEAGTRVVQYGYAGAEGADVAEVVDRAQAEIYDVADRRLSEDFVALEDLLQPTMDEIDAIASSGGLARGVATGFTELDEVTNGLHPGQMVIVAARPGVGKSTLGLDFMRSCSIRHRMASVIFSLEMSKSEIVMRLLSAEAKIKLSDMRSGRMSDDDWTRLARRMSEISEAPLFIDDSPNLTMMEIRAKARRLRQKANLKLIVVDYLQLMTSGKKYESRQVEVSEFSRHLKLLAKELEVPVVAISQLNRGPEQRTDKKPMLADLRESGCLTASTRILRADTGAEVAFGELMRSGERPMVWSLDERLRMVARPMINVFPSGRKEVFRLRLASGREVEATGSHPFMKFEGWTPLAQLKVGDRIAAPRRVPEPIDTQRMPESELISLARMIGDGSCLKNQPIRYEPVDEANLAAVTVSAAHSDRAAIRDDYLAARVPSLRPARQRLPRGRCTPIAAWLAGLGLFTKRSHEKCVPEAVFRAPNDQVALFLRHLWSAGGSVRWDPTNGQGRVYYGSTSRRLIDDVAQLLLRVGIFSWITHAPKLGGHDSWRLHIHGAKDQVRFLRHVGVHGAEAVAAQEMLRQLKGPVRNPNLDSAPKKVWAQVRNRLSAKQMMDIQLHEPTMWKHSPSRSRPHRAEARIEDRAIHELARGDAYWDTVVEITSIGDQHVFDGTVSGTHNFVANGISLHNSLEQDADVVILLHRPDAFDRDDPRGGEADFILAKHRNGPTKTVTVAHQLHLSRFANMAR

Protein RecA = target: T6, Protein RecA (Mycobacterium tuberculosis, UniProt P9WHJ3); assay: Fluorescence Cell-Free Homogeneous Dose Retest to Identify Inhibitors of RecA-Intein Splicing Activity. [Related pubchem assays (depositor defined):AID2097, AID2223, AID489010, AID492950]; assay type: functional
T6 sequence (P9WHJ3 whole entry): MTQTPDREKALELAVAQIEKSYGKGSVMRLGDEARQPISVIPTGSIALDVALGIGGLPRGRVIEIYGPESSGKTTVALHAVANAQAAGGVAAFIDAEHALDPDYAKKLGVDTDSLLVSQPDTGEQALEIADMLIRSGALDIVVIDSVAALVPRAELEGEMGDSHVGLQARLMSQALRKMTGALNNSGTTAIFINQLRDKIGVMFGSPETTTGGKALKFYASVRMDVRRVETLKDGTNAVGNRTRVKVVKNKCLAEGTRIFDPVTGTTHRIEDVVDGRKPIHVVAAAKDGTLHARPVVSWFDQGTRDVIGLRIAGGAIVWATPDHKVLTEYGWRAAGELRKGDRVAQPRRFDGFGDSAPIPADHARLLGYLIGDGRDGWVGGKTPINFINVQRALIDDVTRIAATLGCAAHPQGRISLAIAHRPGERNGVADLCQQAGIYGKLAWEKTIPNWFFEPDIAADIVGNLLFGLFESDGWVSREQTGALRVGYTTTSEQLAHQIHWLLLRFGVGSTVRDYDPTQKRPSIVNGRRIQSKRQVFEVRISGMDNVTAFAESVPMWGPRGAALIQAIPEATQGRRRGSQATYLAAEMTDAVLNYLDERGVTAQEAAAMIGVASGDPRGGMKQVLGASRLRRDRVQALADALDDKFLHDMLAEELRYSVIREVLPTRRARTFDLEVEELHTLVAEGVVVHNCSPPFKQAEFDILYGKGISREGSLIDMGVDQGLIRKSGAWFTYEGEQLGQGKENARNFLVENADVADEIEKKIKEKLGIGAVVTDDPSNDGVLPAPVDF

Genome polyprotein = Genome polyprotein (dengue virus type 2, UniProt P29990); assay: Dengue-2 NS5 methyltransferase inhibitors, primary screen, biochemical, confirmation dose response (AID 588689); assay type: functional
[11] = inhibitors of firefly luciferase expression or activity, dose response, H4 neuroglioma cells, luminescence (AID 1990); assay type: functional, cell-based
BJ [12] = assay: cytotoxicity toward BJ-TERT fibroblasts, dose response, cell-based, RAS-independent, luminescence (AID 1933); assay type: functional; conditions: Homo sapiens
[13] = Luminescence Cell-Based Dose Response HTS to Identify Inhibitors of 5'UTR Stem-Loop Driven Prion Protein mRNA Translation in H4 Neuroglioblastoma Cells. [Related pubchem assays: 1827 (Project Summary), 1813 (Primary HTS)]; assay type: functional
[14] = inhibitors of SNCA 5'UTR-driven reporter translation, confirmation, H4 neuroglioma cells, luminescence (AID 1988); assay type: functional, cell-based
BJ [15] = assay: cells; assay type: functional, cell-based; conditions: Homo sapiens
BJ [16] = assay: cytotoxicity toward BJ-TERT-LT-ST fibroblasts, dose response, cell-based, RAS-independent, luminescence (AID 1935); assay type: functional; conditions: Homo sapiens;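 note: BJ fibroblasts immortalized with TERT plus LT and ST oncogenes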
[17] = cytotoxicity toward DRD oncogenic fibroblasts, dose response, cell-based, non-viral oncogenic, luminescence (AID 1934); assay type: functional; conditions: Homo sapiens
[18] = target: T7, Heat shock factor protein 1 (Mus musculus, UniProt P38532); assay: HSF1 potentiators in luciferase reporter cells, confirmation, cell-based, NIH3T3, luminescence, dose retest (AID 435004); assay type: functional;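 note: stress induced by proteasome inhibitor MG132 added 30 min after compound; luciferase reporter driven by HSF1 response element in NIH3T3 cells; actives raise luminescence as potentiators of the MG132 stress response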
T7 sequence (P38532 whole entry): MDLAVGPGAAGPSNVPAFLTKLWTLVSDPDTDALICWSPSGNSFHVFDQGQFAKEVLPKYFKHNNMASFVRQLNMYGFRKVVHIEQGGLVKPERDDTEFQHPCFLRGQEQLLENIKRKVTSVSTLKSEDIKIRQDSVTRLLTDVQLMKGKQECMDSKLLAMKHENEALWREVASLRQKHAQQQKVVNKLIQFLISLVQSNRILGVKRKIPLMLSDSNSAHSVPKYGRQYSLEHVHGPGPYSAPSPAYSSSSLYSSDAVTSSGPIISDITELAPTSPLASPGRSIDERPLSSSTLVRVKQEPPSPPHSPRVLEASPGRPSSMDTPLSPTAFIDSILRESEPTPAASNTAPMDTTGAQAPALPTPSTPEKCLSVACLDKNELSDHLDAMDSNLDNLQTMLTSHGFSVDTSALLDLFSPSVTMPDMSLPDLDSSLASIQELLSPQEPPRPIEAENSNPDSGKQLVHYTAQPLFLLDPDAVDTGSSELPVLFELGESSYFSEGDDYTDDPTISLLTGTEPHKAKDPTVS

BJ [19] = assay: cytotoxicity toward Ras-transformed BJeLR fibroblasts, dose response, cell-based, alamar blue fluorescence, cherrypicked samples (AID 2631); assay type: functional; conditions: Homo sapiens;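 note: confirmatory dose-response assay in RAS-dependent BJ fibroblasts engineered with TERT, LT and ST, with cytotoxicity read by fluorescence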
H9c2 = assay: cells; assay type: functional, cell-based; conditions: Rattus norvegicus, H9c2, Myocardium;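 note: confirmatory concentration-response retest of ultra-high-throughput screening hits for modulation of myocardial damage; cell death induced by hydrogen peroxide oxidative stress; compound pretreatment for 60 min then peroxide exposure for 2 h; potency is for protecting the cells against peroxide damage rather than for killing them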
HeLa = assay: HeLa cell cytotoxicity, dose response, cytotoxicity control for MITF activator project, CellTiter-Glo luminescence, cherry-pick samples (AID 540259); assay type: functional, cell-based; conditions: Homo sapiens

ATP-dependent molecular chaperone HSP82, sequence (C4YTQ8 whole entry): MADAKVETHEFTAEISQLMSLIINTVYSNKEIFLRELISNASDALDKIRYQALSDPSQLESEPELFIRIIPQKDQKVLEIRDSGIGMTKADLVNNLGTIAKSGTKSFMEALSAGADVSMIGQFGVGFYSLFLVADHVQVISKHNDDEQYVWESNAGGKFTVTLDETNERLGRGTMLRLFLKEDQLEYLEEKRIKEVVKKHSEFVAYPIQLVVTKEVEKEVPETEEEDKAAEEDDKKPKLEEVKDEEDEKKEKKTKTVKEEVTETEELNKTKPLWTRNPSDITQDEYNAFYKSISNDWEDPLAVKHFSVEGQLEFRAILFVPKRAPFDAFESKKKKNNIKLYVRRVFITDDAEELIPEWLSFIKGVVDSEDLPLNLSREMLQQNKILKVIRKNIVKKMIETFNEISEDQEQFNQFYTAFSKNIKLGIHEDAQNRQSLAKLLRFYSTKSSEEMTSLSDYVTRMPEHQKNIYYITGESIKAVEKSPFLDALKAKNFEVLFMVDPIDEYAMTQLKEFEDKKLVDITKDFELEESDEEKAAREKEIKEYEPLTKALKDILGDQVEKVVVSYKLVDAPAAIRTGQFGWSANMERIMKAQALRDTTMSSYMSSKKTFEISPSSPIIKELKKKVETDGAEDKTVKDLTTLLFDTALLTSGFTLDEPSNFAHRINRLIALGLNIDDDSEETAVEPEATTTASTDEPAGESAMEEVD
Genome polyprotein, sequence (P29990 2492-3391 limits assumed): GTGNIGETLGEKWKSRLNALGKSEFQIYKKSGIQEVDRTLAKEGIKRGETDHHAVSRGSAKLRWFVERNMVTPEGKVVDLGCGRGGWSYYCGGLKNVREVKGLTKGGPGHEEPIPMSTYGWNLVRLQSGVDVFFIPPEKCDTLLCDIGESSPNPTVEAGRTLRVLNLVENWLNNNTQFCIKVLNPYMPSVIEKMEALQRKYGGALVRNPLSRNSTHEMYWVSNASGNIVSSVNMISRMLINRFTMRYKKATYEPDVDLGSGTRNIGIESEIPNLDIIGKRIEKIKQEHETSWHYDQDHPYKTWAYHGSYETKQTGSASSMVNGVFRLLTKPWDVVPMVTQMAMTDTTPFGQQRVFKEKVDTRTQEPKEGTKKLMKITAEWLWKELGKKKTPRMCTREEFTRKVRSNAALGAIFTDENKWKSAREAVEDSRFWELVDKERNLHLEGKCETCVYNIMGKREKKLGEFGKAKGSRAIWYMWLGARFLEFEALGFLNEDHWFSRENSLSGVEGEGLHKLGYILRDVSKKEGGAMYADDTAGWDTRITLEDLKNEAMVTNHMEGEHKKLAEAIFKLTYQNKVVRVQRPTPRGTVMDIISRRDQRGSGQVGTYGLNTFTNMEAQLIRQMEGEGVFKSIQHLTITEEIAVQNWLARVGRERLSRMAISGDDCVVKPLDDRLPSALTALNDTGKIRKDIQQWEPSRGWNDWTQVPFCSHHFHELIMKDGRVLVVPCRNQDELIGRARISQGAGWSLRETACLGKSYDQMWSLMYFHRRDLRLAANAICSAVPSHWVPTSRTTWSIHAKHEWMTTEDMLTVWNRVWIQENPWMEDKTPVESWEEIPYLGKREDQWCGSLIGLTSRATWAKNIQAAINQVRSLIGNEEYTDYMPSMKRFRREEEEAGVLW

Compound	EC50 [3]	EC50 [4]	EC50 [5]	EC50 [6]	EC50 [7]	EC50 [9]	other results
CCCCOC(=O)Cn1c2ccc(OC)cc2c2nc3ccccc3nc21	> 99 µM (inactive)	24.7 µM (inactive)	–	–	–	–	EC50 [1]: > 300 µM (not active); EC50 [2]: > 300 µM (not active)
CCCC(=O)NC(c1ccco1)c1cc([N+](=O)[O-])c2cccnc2c1O (stereo unspecified)	–	–	20.3 µM (active)	0.826 µM (active)	> 180 µM (inactive)	> 150 µM (inactive)	AC50 [8]: 2.02 µM (active)
COc1ccc2nc(SCC(C)=O)c(C#N)cc2c1	> 99 µM (inactive)	16.5 µM (active)	–	–	–	–	–
Cc1nn(-c2ccccc2)c2c1C(c1cccs1)C(C#N)=C(N)O2 (stereo unspecified)	–	–	–	–	–	–	AC50 [10]: 7 µM (active); EC50 (Protein RecA): 1.83 µM (active); IC50 (Genome polyprotein): > 100 µM (active)
O=C(NCc1ccccc1)c1c(Cl)nc(Cl)c(Cl)c1Cl	–	–	–	–	–	–	EC50 [11]: 10.3 µM (active); EC50 (BJ [12]): 6.46 µM (active); EC50 [13]: > 120 µM (not active); EC50 [14]: > 120 µM (not active); EC50 (BJ [15]): 77.2 µM (inconclusive); EC50 (BJ [16]): 7.26 µM (inconclusive); EC50 [17]: 9.83 µM (active); EC50 [18]: 57.8 µM (active); EC50 (BJ [19]): 3.69 µM (active)
CC(C)(C)c1ccc(OCCCC(=O)NNC(=O)c2ccccc2O)cc1	–	–	51 µM (inconclusive)	> 38 µM (not active)	> 180 µM (inactive)	> 160 µM (inactive)	IC50 (H9c2): > 79 µM (inactive)
Cc1ccc(C(c2c(O)n3c(nc2=O)SCC3)c2c(O)n3c(nc2=O)SCC3)cc1	–	–	–	–	–	–	IC50 (Genome polyprotein): 84.2 µM (active)
O=C1/C(=C/c2cccnc2)CCc2c1[nH]c1ccccc21	–	–	> 160 µM (inactive)	1.95 µM (active)	> 180 µM (inactive)	> 150 µM (inactive)	AC50 (HeLa): 18.7 µM (active)
CC1=NN(c2ccccc2)C(=O)/C1=C/c1cc(C)n(C2CC2)c1C	> 99 µM (inactive)	> 99 µM (inactive)	–	–	–	–	–
